The NIST ThermoML archive (doi:10.1021/je500067f)

Conditions: 101.33 kPa, Liquid; for viscosity: Capillary tube (Ostwald / Ubbelohde) method; for mass density: Pycnometric method

C[S+](C)[O-] [dimethyl sulfoxide]
Conditions | mass density [kg/m3] | viscosity [mPa·s]
298.15 K | 1095.2 | 2
303.15 K | 1090.6 | 1.8
308.15 K | 1085.9 | 1.61
313.15 K | 1081.3 | 1.44
318.15 K | 1075.3 | 1.33
